Results published in patent US7563445B2, “CD40 binding molecules and CTL peptides for treating tumors” (priority 1998, dated 2009).

Legend:
[1] = tested on: E1A-specific CTL clone; test: Spleen cells of peptide-injected mice as stimulator cells for an E1A-specific CTL clone ([3H]-thymidine incorporation); format: cell-based, C57BL/6 mice; details: splenocytes isolated 16 h after s.c. injection of 100 μg peptide in IFA
Description: Spleen cells derived from untreated C57BL/6 mice (−), or from mice injected s.c. 16 h earlier with 100 μg of E1A- or HPV16 E7-peptide in IFA were used as stimulator cells for an E1A-specific CTL clone. [^3H]-thymidine incorporation (cpm) +/−S. E. M. is shown for different effector to stimulator concentrations,. without subtraction of background counts. Results are representative of 5 independent experiments.
Spleen cells from these mice were isolated 16h later and used as stimulator cells for an E1A-specific CTL clone in vitro.

[2] = tested on: HPV16 transformed syngeneic cells (TC-1); test: Therapy of HPV16 E6/E7 transformed tumor cells (TC-1) by peptide plus in vivo CD40 triggering; set-up: species or system C57BL/6 mice; details: treated 6 days after s.c. injection of 25.000 TC-1 cells; 100 μg peptide i.p. in IFA; n=10
Description: Mice were injected s.c with 25.000 HPV16 transformed syngeneic cells (TC-1). C57BL/6 mice were left untreated (-◯-) or after 6 days received 100 μg HPV16 E7-peptide i.p. in IFA (-□-), 100 μg HPV16 E7-peptide i.p. in IFA in combination with the anti-CD40 mAb FGK-45 (-▪-) or a control peptide i.p. in IFA in combination with the anti-CD40 mAb FGK-45 (-●-). The percentage of tumor bearing mice is depicted for different treatment groups (n=10) in (a). The differences between the group treated with the HPV16-peptide plus the anti-CD40 mAb and the other three groups were statistically significant (p<0.01) (Log-Rank test). In (b) the percentage of surviving animals is shown (E7-peptide-treated group vs E7-peptide plus anti-CD40-treated group: p=0.002, Log-Rank test).
It was examined whether CD40-triggering in vivo is beneficial to the outcome of vaccination with an HPV16 E7-derived peptide.

[3] = tested on: HPV16 transformed syngeneic cells (TC-1); details: preventive vaccination with peptide, prior knowledge; cited from earlier work
[4] = target: T1, CD40 (Mus musculus, UniProt P27512); test: Cross-priming of E1B-specific CTLs in mice immunized with Ad5E1-BALB/c MECs, CD40 activation replacing CD4+ T help; format: in vivo; details: CD4-depleted mice after immunization; LPS 50 μg intravenous; IL-2 1×10^5 units in IFA subcutaneous (not shown)
T1 construct: endogenous in cells
T1 sequence (P27512 20-289): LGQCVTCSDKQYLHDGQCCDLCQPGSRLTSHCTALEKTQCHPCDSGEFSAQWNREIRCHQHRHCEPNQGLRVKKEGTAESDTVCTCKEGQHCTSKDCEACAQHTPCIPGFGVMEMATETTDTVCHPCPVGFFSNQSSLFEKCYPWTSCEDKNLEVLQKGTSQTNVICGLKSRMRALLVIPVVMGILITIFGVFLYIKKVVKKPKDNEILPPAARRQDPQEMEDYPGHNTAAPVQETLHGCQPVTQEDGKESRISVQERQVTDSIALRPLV
Text: (§1) Each line represents one mouse.
as §1

[5] = tested on: E1A-specific CTL; test: E1A-peptide in IFA with in vivo CD40-triggering: E1A-specific CTL cytotoxicity and Db/E1A tetramer staining; set-up: species or system C57BL/6 mice; details: spleen of vaccinated mice
Text: Since CD4^+ T cell-mediated helper activity has been implicated in the prevention of peripheral CTL tolerance induction, the inventors addressed the question whether CD40-triggering in vivo is sufficient to prevent peripheral E1A-specific CTL tolerization.

Row | Substance | Proliferation of E1A-specific CTL clone on splenocytes [1] | Tumor growth / outgrowth [2] | Immunity against a challenge with HPV16-transformed tumor cells [3] | E1B-specific CTL activity / CTL priming [4] | Percentage of CD8+ cells that stained with the Db/E1A tetramers [5]
1 | RAHYNIVTF (Human Papilloma Virus Type 16 E7 derived peptide) [E7-peptide] | failed to do so | able to slow down tumor growth, but eventually most animals succumb to the tumor | induces protective CTL-mediated immunity | – | –
2 | bacterial lipopolysaccharide [LPS] | – | – | – | neither LPS or IL-2 treatment resulted in detectable CTL priming | –
3 | SGPSNTPPEI (Human Adenovirus E1A derived peptide) [E1A-peptide] | induced specific proliferation | – | – | – | approximately 3%
